The structures appear in SMILES notation. pIC50: −log10 of the molar value.

In the assay the target is T1, DNA topoisomerase I (Top I) (Escherichia coli, UniProt P06612).
T1 construct: gene topA
Briefly: in vitro Top I inhibition assay (absorbance, plate reader); also affinity ultrafiltration HPLC-MS, EF […]. The format is biochemical.

T1 sequence (P06612 whole entry): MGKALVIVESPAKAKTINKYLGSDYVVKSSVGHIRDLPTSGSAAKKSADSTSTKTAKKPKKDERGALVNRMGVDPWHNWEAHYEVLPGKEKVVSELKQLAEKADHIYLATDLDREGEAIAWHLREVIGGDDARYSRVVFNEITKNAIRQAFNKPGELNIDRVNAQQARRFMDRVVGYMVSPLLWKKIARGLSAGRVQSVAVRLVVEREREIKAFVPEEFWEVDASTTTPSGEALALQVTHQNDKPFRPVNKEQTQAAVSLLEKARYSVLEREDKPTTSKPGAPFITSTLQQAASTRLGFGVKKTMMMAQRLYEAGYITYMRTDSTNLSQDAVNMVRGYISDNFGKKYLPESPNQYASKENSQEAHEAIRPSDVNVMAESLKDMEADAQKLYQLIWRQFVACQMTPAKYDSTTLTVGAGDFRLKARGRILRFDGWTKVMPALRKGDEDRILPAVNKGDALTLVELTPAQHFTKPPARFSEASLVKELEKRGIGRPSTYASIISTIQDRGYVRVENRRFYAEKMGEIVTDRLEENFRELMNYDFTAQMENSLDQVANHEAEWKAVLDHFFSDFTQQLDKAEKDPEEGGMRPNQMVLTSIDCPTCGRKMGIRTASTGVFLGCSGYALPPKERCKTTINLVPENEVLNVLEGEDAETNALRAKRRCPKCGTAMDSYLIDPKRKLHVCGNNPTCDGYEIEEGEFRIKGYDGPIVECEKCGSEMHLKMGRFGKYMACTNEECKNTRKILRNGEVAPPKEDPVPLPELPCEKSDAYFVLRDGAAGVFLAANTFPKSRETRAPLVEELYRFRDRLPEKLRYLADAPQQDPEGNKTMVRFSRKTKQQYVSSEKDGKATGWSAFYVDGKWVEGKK

In general, pIC50 refers to −log10 of the IC50, conventionally taken in molar units. The low end stands for a high IC50, the high end for a low IC50. Molecule `CN1CCC2=C[C@H](O)[C@H]3OC(=O)c4cc5c(cc4[C@H]3[C@@H]21)OCO5` [compound 5, hippeastrine] showed a pIC50 of 4.64.

For the origin of these results see publication PMC5138836, “Antiproliferative activities of Amaryllidaceae alkaloids from Lycoris radiata targeting DNA topoisomerase I” (Scientific Reports, 2016).
